{"source": "patent US20220378923A1", "about": "“BET DEGRADER” (KYOWA KIRIN CO., LTD., priority 2019, published 2022)"}
{"tested_on": "SU-DHL-4 cells", "test": "Inhibitory effect on cell viability in SU-DHL-4 cell line (Test Example 1)", "format": "cell-based, human", "details": "Homo sapiens; SU-DHL-4 cells, 72 hours, Cell Counting Kit-8; concentration showing 90% inhibition of cell viability; read-out: SU-DHL-4 Cell Viability Inhibition Rate IC90", "method": "(§1) SU-DHL-4 cells (Code No. ACC 495, Deutsche Sammlung von Mikroorganismen and Zellkulturen GmbH; DSMZ) were cultured at 37° C. using a carbon dioxide incubator (95% air, 5% CO2) in RPMI1640 medium (Code No. 11875-093, Thermo Fisher Scientific) in which inactivated fetal bovine serum (FBS: Code No. 10099-148, Thermo Fisher Scientific) in an amount to give a final concentration of 10 vol % and penicillin/streptomycin solution (PS: […] The cells were passaged twice a week at a volume of 20-40 mL so as to maintain a cell concentration of 1×10^6 cells/mL or less. […] After seeding, the cells were precultured at 37° C. in a carbon dioxide gas incubator for 18 to 25 hours. […] At this time, the final concentration of DMSO was adjusted to be 0.1 vol %. After adding the test compound, the cells were cultured at 37° C. in a carbon dioxide gas incubator for 72 hours. Next, 0.020 mL of Cell Counting Kit-8 (Code No. CK04, DOJINDO) solution diluted 2-fold or 4-fold with phosphate buffered saline (PBS) was added to each well. Color reaction was carried out in a carbon dioxide gas incubator at 37° C. for 2 to 3 hours, and the absorbance at a wavelength of 450 nm was measured using SpectraMax 340PC (Molecular Devices). […] Absorbance of a well containing test compound • B: Absorbance of a well without addition of cells • C: Absorbance of a well without addition of test compound", "units": {"IC90": "nM"}}
{"smiles": "CCC(=O)N1c2ccccc2[C@H](Nc2ccc(NC(=O)CNC(=O)Nc3ccc(N[C@@H]4C[C@H](C)N(C(=O)CC)c5ccccc54)cc3)cc2)C[C@@H]1C", "note": "(relative stereo) [Compound 6j, N-(4-(((2S*,4R*)-2-Methyl-1-propionyl-1,2,3,4-tetrahydroquinolin-4-yl)amino)phenyl)-2-(3-(4-(((2S*,4R*)-2-methyl-1-propionyl-1,2,3,4-tetrahydroquinolin-4-yl)amino)phenyl)ureido)acetamide]", "IC90": 0.13}
{"tested_on": "SU-DHL-4 cells", "test": "Inhibitory effect on cell viability in SU-DHL-4 cell line (Test Example 1)", "format": "cell-based, human", "details": "SU-DHL-4 cells, 72 hours, Cell Counting Kit-8; concentration showing 90% inhibition of cell viability; read-out: SU-DHL-4 Cell Viability Inhibition Rate IC90", "method": "as §1", "units": {"IC90": "nM"}}
{"smiles": "CCC(=O)N1c2ccccc2[C@H](Nc2ccc(C(=O)NCCCNC(=O)c3ccc(C(O)c4cc(O)cc(-c5c(C)noc5C)c4)cc3)cc2)C[C@@H]1C", "note": "(relative stereo) [Compound 1d, 4-{[3-(3,5-Dimethylisoxazol-4-yl)-5-hydroxyphenyl](hydroxy)methyl}-N-[3-(4-{[(2S*,4R*)-2-methyl-1-propionyl-1,2,3,4-tetrahydroquinolin-4-yl]amino}benzamide)propyl]benzamide]", "IC90": 38}
{"smiles": "CCC(=O)N1c2ccccc2[C@H](Nc2ccc(C(=O)NCCCNC(=O)c3ccc(Cn4c(CC)cc5c4CCCC5=O)cc3)cc2)C[C@@H]1C", "note": "(relative stereo) [Compound 1e, 4-[(2-Ethyl-4-oxo-4,5,6,7-tetrahydro-1H-indol-1-yl)methyl]-N-[3-(4-{[(2S*,4R*)-2-methyl-1-propionyl-1,2,3,4-tetrahydroquinolin-4-yl]amino}benzamide)propyl]benzamide]", "IC90": 39.8}
{"smiles": "CCC(=O)N1c2ccccc2[C@H](Nc2ccc(C(=O)NCCCNC(=O)c3ccc(C4=NCc5nnc(C)n5-c5sc(C)c(C)c54)cc3)cc2)C[C@@H]1C", "note": "(relative stereo) [Compound 1f, 4-{[(2S*,4R*)-2-Methyl-1-propionyl-1,2,3,4-tetrahydroquinolin-4-yl]amino}-N-{3-[4-(2,3,9-trimethyl-6H-thieno[3,2-f][1,2,4]triazolo[4,3-a][1,4]diazepin-4-yl)benzamide]propyl}benzamide]", "IC90": 4.78}
{"smiles": "CCC(=O)N1c2ccccc2[C@H](Nc2ccc(NC(=O)c3cccc(NC(=O)c4ccc(N[C@@H]5C[C@H](C)N(C(=O)CC)c6ccccc65)cc4)c3)cc2)C[C@@H]1C", "note": "(relative stereo) [Compound 2j, 3-(4-{[(2S,4R)-2-Methyl-1-propionyl-1,2,3,4-tetrahydroquinolin-4-yl]amino}benzamide)-N-(4-{[(2S*,4R*)-2-methyl-1-propionyl-1,2,3,4-tetrahydroquinolin-4-yl]amino}phenyl)benzamide]", "IC90": 0.36}
{"smiles": "CCC(=O)N1c2ccccc2[C@H](Nc2ccc(-c3cn4c(n3)CN(C(=O)C3CCC(N[C@@H]5C[C@H](C)N(C(=O)CC)c6ccccc65)CC3)CC4)cc2)C[C@@H]1C", "note": "(relative stereo) [Compound 7b, 1-((2S*,4R*)-2-Methyl-4-(((1R,4r)-4-(2-(4-(((2S,4R)-2-methyl-1-propionyl-1,2,3,4-tetrahydroquinolin-4-yl)amino)phenyl)-5,6,7,8-tetrahydroimidazo[1,2-a]pyrazine-7-carbonyl)cyclohexyl)amino)-3,4-dihydroquinolin-1(2H)-yl)propan-1-one]", "IC90": 1.51}
{"smiles": "CCC(=O)N1c2ccccc2[C@H](Nc2ccc(NC(=O)CNC(=S)OC3CCC(N[C@@H]4C[C@H](C)N(C(=O)CC)c5ccccc54)CC3)cc2)C[C@@H]1C", "note": "(relative stereo) [Compound 7d, 0-((1R,4R)-4-(((2S*,4R*)-2-Methyl-1-propionyl-1,2,3,4-tetrahydroquinolin-4-yl)amino)cyclohexyl)(2-((4-(((2S,4R)-2-methyl-1-propionyl-1,2,3,4-tetrahydroquinolin-4-yl)amino)phenyl)amino)-2-oxoethyl)carbamothioate]", "IC90": 25.9}
{"smiles": "CCC(=O)N1c2ccccc2[C@H](Nc2ccc(NC(=O)CNC(=O)O[C@H]3CC[C@H](N[C@@H]4C[C@H](C)N(C(=O)CC)c5ccccc54)CC3)cc2)C[C@@H]1C", "note": "(relative stereo) [Compound 7e, (1R,4R)-4-(((2S*,4R*)-2-Methyl-1-propionyl-1,2,3,4-tetrahydroquinolin-4-yl)amino)cyclohexyl (2-((4-(((2S,4R)-2-methyl-1-propionyl-1,2,3,4-tetrahydroquinolin-4-yl)amino)phenyl)amino)-2-oxoethyl)carbamate]", "IC90": 20.4}
{"smiles": "CCC(=O)N1c2ccccc2[C@H](Nc2ccc(C(=O)c3cnc4n3CCN(C(=O)C3CCC(N[C@@H]5C[C@H](C)N(C(=O)CC)c6ccccc65)CC3)C4)cc2)C[C@@H]1C", "note": "(relative stereo) [Compound 7i, 1-((2S*,4R*)-2-Methyl-4-(((1r,4R)-4-(3-(4-(((2S,4R)-2-methyl-1-propionyl-1,2,3,4-tetrahydroquinolin-4-yl)amino)benzoyl)-5,6,7,8-tetrahydroimidazo[1,2-a]pyrazine-7-carbonyl)cyclohexyl)amino)-3,4-dihydroquinolin-1(2H)-yl)propan-1-one]", "IC90": 0.33}
{"smiles": "CCC(=O)N1c2ccccc2[C@H](Nc2ccc(NC(=O)CNC(=O)C3CCC(N[C@@H]4C[C@H](C)N(C(=O)CC)c5ccccc54)CC3)cc2)C[C@@H]1C", "note": "(relative stereo) [Compound 7k, (1R,4R)-4-(((2S*,4R*)-2-Methyl-1-propionyl-1,2,3,4-tetrahydroquinolin-4-yl)amino)-N-(2-((4-(((2S,4R)-2-methyl-1-propionyl-1,2,3,4-tetrahydroquinolin-4-yl)amino)phenyl)amino)-2-oxoethyl)cyclohexane-1-carboxamide]", "IC90": 0.62}
{"smiles": "CCC(=O)N1c2ccccc2[C@H](Nc2ccc(Cc3cnc4n3CCN(C(=O)C3CCC(N[C@@H]5C[C@H](C)N(C(=O)CC)c6ccccc65)CC3)C4)cc2)C[C@@H]1C", "note": "(relative stereo) [Compound 7l, 1-((2S*,4R*)-2-Methyl-4-(((1r,4R)-4-(3-(4-(((2S,4R)-2-methyl-1-propionyl-1,2,3,4-tetrahydroquinolin-4-yl)amino)benzyl)-5,6,7,8-tetrahydroimidazo[1,2-a]pyrazine-7-carbonyl)cyclohexyl)amino)-3,4-dihydroquinolin-1(2H)-yl)propan-1-one]", "IC90": 0.28}
{"smiles": "CCC(=O)N1c2ccccc2[C@H](Nc2ccc(C(=O)NCCCNC(=O)C3CCC(N[C@@H]4C[C@H](C)N(C(=O)CC)c5ccccc54)CC3)cc2)C[C@@H]1C", "note": "(relative stereo) [Compound 7m, 4-(((2S,4R)-2-Methyl-1-propionyl-1,2,3,4-tetrahydroquinolin-4-yl)amino)-N-(3-((1R,4r)-4-(((2S*,4R*)-2-methyl-1-propionyl-1,2,3,4-tetrahydroquinolin-4-yl)amino)cyclohexane-1-carboxamide)propyl)benzamide]", "IC90": 20.3}
{"smiles": "CCC(=O)N1c2ccccc2[C@H](Nc2ccc(C(=O)NC3CN(C(=O)C4CCC(N[C@@H]5C[C@H](C)N(C(=O)CC)c6ccccc65)CC4)C3)cc2)C[C@@H]1C", "note": "(relative stereo) [Compound 7n, 4-(((2S,4R)-2-Methyl-1-propionyl-1,2,3,4-tetrahydroquinolin-4-yl)amino)-N-(1-((1R,4R)-4-(((2S*,4R*)-2-methyl-1-propionyl-1,2,3,4-tetrahydroquinolin-4-yl)amino)cyclohexane-1-carbonyl)azetidin-3-yl)benzamide]", "IC90": 13.9}
{"smiles": "CCC(=O)N1c2ccccc2[C@H](Nc2ccc(C(=O)NCC(=O)CNC(=O)C3CCC(N[C@@H]4C[C@H](C)N(C(=O)CC)c5ccccc54)CC3)cc2)C[C@@H]1C", "note": "(relative stereo) [Compound 7r, 4-(((2S,4R)-2-Methyl-1-propionyl-1,2,3,4-tetrahydroquinolin-4-yl)amino)-N-(3-((1R,4r)-4-(((2S*,4R*)-2-methyl-1-propionyl-1,2,3,4-tetrahydroquinolin-4-yl)amino)cyclohexane-1-carboxamide)-2-oxopropyl)benzamide]", "IC90": 0.38}
{"smiles": "CCC(=O)N1c2ccccc2[C@H](Nc2ccc(-c3cnn(C4CCN(C(=O)C5CCC(N[C@@H]6C[C@H](C)N(C(=O)CC)c7ccccc76)CC5)CC4)c3)cc2)C[C@@H]1C", "note": "(relative stereo) [Compound 8d, 1-((2S*,4R*)-2-Methyl-4-(((1r,4R)-4-(4-(4-(4-(((2S,4R)-2-methyl-1-propionyl-1,2,3,4-tetrahydroquinolin-4-yl)amino)phenyl)-1H-pyrazol-1-yl)piperidine-1-carbonyl)cyclohexyl)amino)-3,4-dihydroquinolin-1(2H)-yl)propan-1-one]", "IC90": 0.14}
{"smiles": "CCC(=O)N1c2ccccc2[C@H](Nc2ccc(-c3ccc(CNC(=O)C4CCC(N[C@@H]5C[C@H](C)N(C(=O)CC)c6ccccc65)CC4)s3)cc2)C[C@@H]1C", "note": "(relative stereo) [Compound 8e, (1R,4R)-4-(((2S*,4R*)-2-Methyl-1-propionyl-1,2,3,4-tetrahydroquinolin-4-yl)amino)-N-((5-(4-(((2S,4R)-2-methyl-1-propionyl-1,2,3,4-tetrahydroquinolin-4-yl)amino)phenyl)thiophen-2-yl)methyl)cyclohexane-1-carboxamide]", "IC90": 0.2}
